Source: US20260184689A1, “PIPERIDINE-SUBSTITUTED BENZOIC ACID COMPOUND, AND PHARMACEUTICAL COMPOSITION AND USE THEREOF” (SHANGHAI YISHENG BIOPHARMACEUTICAL COMPANY LIMITED, priority 2022, published 2026)

Key:
[1] = tested on: PNH-like erythrocytes; assay: Alternative pathway inhibition assay of PNH-like erythrocyte; format: cell-based; details: 1 h, AET/anti-CD55 sensitized human erythrocytes, acidified normal human serum pH 6.4, 37° C. 60 min
From the text: Principle: PNH, as an indication for complement inhibitors, was typically tested using the Ham test, which states that acidified serum was capable of activating the alternative pathway, leading to hemolysis of PNH erythrocytes, while normal erythrocytes remained unaffected. It was reported in the literature that AET could disrupt the complement regulatory proteins on the surface of normal human erythrocytes, resulting in PNH-like erythrocytes.
Reagents and instrument: PBS buffer, normal human serum (NHS), Alsever's solution, microplate reader, MgCl2, EGTA, EDTA, HCl, normal human erythrocytes, AET; anti-CD-55 antibody (BRIC216; Sigma)
PBS buffer: Potassium dihydrogen phosphate (KH2PO4): 0.24 g/L, disodium hydrogen phosphate (Na2HPO4): 1.44 g/L, sodium chloride (NaCl): 8 g/L, potassium chloride (KCl): 0.2 g/L, pH 7.4
PBSE buffer: PBS, 10 mM EDTA; pH 7.4
PBSMg buffer: PBS, 1 mM Mg++; pH 6.4
10× Mg-EGTA stock solution: 25 mM MgCl2, 80 mM EGTA; pH 6.4
10× EDTA stock solution: 100 mM EDTA; pH 6.4
Method: The inhibition of alternative pathway-mediated erythrocyte lysis was evaluated using an in vitro model of PNH. Normal human erythrocytes were sensitized with 2-aminoethylisothiouronium bromide (AET) to inactivate complement regulatory proteins on the cell surface and induce a PNH-like phenotype.
2 mL of normal human erythrocytes were mixed with 2 mL of Alsever's solution, washed three times with PBS, and centrifuged at 2500×g, with the upper 10% of the erythrocytes being removed each time. The washed 1 mL erythrocytes were sensitized by incubation with 4 mL of 8% w/v AET (pH 8.0) at 37° C. for 10 min, followed by three additional washes with PBS. Subsequently, the concentration of erythrocytes in PBS (erythrocyte stock solution) was adjusted with PBS such that an absorbance of 1.5-2.0 at 412 nm (indicating hemoglobin release) was achieved upon dilution of 10 μL erythrocyte stock solution with 190 μL water.
1.5 mL of the erythrocyte stock solution was mixed with anti-CD55 antibody (BRIC216; Sigma/final concentration of 6.7 μg/mL) and incubated on ice for 30 min. After being washed once with PBS, the treated erythrocytes were resuspended in PBS-Mg to the initial volume of 1.5 mL. The following AP-mediated lysis assay was performed on this erythrocyte preparation with induced PNH phenotype.
The normal human serum was acidified with 0.2 M HCl to pH 6.4, and supplemented with MgCl2 and EGTA to final concentrations of 2.5 and 8 mM, respectively. 80 μL of this serum mixture was mixed with 10 μL of PBS-Mg (negative blank) or 10 μL of samples at various concentrations. Normal human serum was acidified with 0.2 M HCl to pH 6.4, supplemented with EDTA to a final concentration of 10 mM, and 80 μL of this serum mixture was mixed with 10 μL of PBS-Mg (negative blank) as a blank positive control. The sample was incubated with serum on ice for 5 min, and then 10 μL of sensitized erythrocytes were added. The final serum concentration in the reaction mixture was approximately 64% v/v, incubated at 37° C. for 60 min, and the reaction was quenched by adding 50 μL of ice-cold PBS containing 10 mM EDTA. The remaining unlysed cells were centrifuged at 2500×g for 10 min, and 100 μL of the supernatant was transferred to a 96-well plate to measure its absorbance at 412 nm. The amount of hemoglobin released during erythrocyte lysis was thereby quantified. […] represented the relative lysis of PNH-like erythrocytes (expressed in %; set to 0% for the PC sample and 100% for the NC sample). The absorbance was measured using a microplate reader (Molecular Devices SpectraMax 3X). The IC50 value was calculated by applying nonlinear regression with GraphPad Prism 9.0 software from the percentage of hemolysis as a function of the test compound concentration.

[2] = Pharmacokinetic activity assay in mice; format: in vivo; details: IV 1 mg/kg, PO 10 mg/kg
Procedure: Experimental objective: The test substance was administered to mice via single-dose intravenous and oral gavage routes, and its plasma concentration was measured to evaluate the pharmacokinetic characteristics in mice.
Experimental animals: C57 mice or other available test mice
IV dose: 1 mg/kg; vehicle: 0.5% DMSO or 0.5% MeOH-5% pharmaceutical grade polyethylene glycol-15 hydroxystearate-PBS
Sample collection: 0.03 mL of blood samples were collected from the saphenous vein in experimental animals by puncture at each time point, and the actual blood collection time was recorded. All blood samples were added to commercially available EDTA-K2 anticoagulant tubes with a specification of 1.5 mL (supplied by Jiangsu Kangjian Medical Apparatus Co., Ltd.). After collection, within half an hour, the blood sample was centrifuged at 4° C., 3000 g for 10 min to aspirate the supernatant plasma, which was put in dry ice immediately, and stored in a refrigerator at −80° C. for LCMS/MS analysis.
Blood sampling points: 5 min, 15 min, 30 min, 1 hour, 2 hours, 4 hours, 6 hours, 8 hours, 12 hours, 20 hours, 24 hours.
Test compounds: positive compound LNP023, the final product of Example 158, the final products (compound 159A and compound 159B) of Example 159, and compound 11 of Example 75.

SMILES | IC50 [1] [µM] | clearance rate during in vivo metabolism, compared with LNP023 [2] | half-life during in vivo metabolism, compared with LNP023 [2]
CCCC1CCN(C(=O)c2c(OC)cc(C)c3[nH]ccc23)[C@H](c2ccc(C(=O)O)cc2)C1 (mixture of isomers) [Final product of Example 158, 4-((2S)-1-(5-Methoxy-7-methyl-1H-indole-4-carbonyl)-4-propylpiperidin-2-yl)benzoic acid] | 0.05 to 0.25 | comparable or superior | comparable or superior
CCCC1CCN(C(=O)c2c(OC)cc(C)c3[nH]ccc23)C(c2ccc(C(=O)O)cc2)C1 (single isomer, unassigned) [Compound 159A] | 0.05 to 0.25 | comparable or superior | comparable or superior
CCO[C@H]1CCN(Nc2c(OC)cc(C)c3[nH]ccc23)[C@H](c2ccc(C(=O)O)cc2)C1 [Compound 11 of Example 75, 4-((2S,4S)-4-Ethoxy-1-((5-methoxy-7-methyl-1H-indol-4-yl)amino)piperidin-2-yl)benzoic acid] | 0.1 to 0.3 | comparable or superior | comparable or superior
